Reference: article PMC12484522, “Neuroprotective effects of chemical constituents from Nicotiana tabacum L. in Parkinson’s disease” (Natural Products and Bioprospecting, 2025)
Entries after “also recorded” stand apart in the source; their conditions may differ. Read-outs that look alike come from different tables or passages of the source. Each block holds one molecule with its values, some of them ahead of it.

Experiments:
MAO-B [1] = target: T1, MAO-B (Homo sapiens, UniProt P27338); assay: MAO-B inhibition assay (kynuramine, fluorescence); assay type: biochemical
T1 sequence (P27338 1-520): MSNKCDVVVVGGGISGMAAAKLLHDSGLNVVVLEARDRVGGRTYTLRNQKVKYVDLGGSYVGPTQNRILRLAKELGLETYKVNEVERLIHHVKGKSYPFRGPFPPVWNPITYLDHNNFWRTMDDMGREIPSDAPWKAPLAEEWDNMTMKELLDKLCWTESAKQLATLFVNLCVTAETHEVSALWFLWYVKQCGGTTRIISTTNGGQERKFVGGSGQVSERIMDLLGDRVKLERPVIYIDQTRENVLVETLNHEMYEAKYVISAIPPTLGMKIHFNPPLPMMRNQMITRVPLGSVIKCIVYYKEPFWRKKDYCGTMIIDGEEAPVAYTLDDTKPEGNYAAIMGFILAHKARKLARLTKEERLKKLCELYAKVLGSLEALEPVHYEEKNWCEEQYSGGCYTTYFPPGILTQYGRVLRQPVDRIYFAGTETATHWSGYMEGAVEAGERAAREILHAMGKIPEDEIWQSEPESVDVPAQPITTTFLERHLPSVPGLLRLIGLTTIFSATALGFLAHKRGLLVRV
Protocol: In preparing the microplates, 50 μL of MAO-B (2.5 U/mL) was combined with 100 μL of the test compounds at different concentrations. This mixture was incubated at 37 °C for 10 min. […] Next, 50 μL of kynuramine (0.2 mM) sourced from Macklin in Shanghai, China, was added to the mixture. The resulting mixture was incubated at 37 °C for an additional 30 min. The reaction was halted by adding 80 μL of 2 N NaOH. Ultimately, the enzyme activity was measured using a microplate reader, with the excitation and emission wavelengths set at 310 nm and 400 nm, respectively.

MAO-B [2] = target: T1, MAO-B; assay: Kinetic studies of MAO-B inhibition (Lineweaver–Burk plots); assay type: biochemical
Protocol: The kinetic study of MAO-B inhibition was the Lineweaver–Burk plot, which was performed using the Lineweaver–Burk curve method. […] Kinetic characterization of their MAO-B inhibition was recorded 20 min after initiation. Constants Kis and Ki were calculated using the Lineweaver–Burk plots.

[3] = system: dopamine levels and striatal DOPAC; design: method as in PMID 26796202; details: intraperitoneal, 80 mg/kg; cited from earlier work
[4] = ABTS+ radical scavenging assay; details: for IC50: read-out: ABTS+ IC50 (μM) ± SD
Protocol: Various concentrations of the compounds (60 μL each) were then combined with 150 μL of the diluted ABTS^+ solution. The reaction was maintained in the dark at 30 °C for 6 min. Afterwards, the absorbance was determined at 734 nm with a microplate reader. The calculation of ABTS radical scavenging activity followed the same method as for DPPH radical scavenging activity. IC50 values were determined using GraphPad Prism 7.0, and all tests were conducted in triplicate.

murine MAO-B = target: murine MAO-B; design: method as in PMID 26796202; details: cited from earlier work
human MAO-B = target: human MAO-B; design: method as in PMID 26796202; details: selective and reversible inhibition; cited from earlier work
MAO-B over MAO-A = details: cited from earlier work
PC12 cell = assay: Cytotoxicity experiment on PC12 cells; assay type: cell-based; details: 0.5–100 μM
[5] = system: 6-OHDA-induced PC12 cells; assay: Neuroprotective effect in 6-OHDA-induced PC12 cells (CCK-8 cell viability); assay type: cell-based
Protocol: Two-dimensional (2D) cell culture models were used for performing cell viability assays. Approximately 10,000 PC12 cells (Fenghui, Changsha, China) were seeded into each well of a 96-well plate. The cells underwent pre-treatment with the test compounds for 2 h at 37 °C. […] The plate was incubated at 37 °C for 1 h after adding 10 μL of CCK-8 solution (ProteinTech, Chicago, USA) to each well. Then, each well's optical density (OD) was measured at 450 nm using a multimode microplate reader (Waltham, MA, USA).

[6] = DPPH radical scavenging assay; details: for IC50: read-out: DPPH IC50 (μM) ± SD
Protocol: The antioxidative capacity of the obtained compounds was carried out through DPPH radical scavenging assays and ABTS assay (Macklin, Shanghai, China) with some modifications, and Vitamin C was used as the positive control. In the DPPH assay, 60 μL of the isolates at varying concentrations were mixed with 100 μL of 100 μM DPPH solution in ethanol in a 96-well microplate. The mixture was shaken for 10 s and then allowed to sit in darkness at 30 °C for 5 min. Subsequently, the absorbance was determined using a microplate reader at a wavelength of 517 nm. The radical-scavenging activity of the compounds was assessed using the formula RSA (%) = [(AB-AA)/AB] × 100%, where AA was the absorbance of the sample and AB was the absorbance of the blank sample. The IC50 value was calculated with GraphPad Prism 7.0, and all experiments were conducted in triplicate.

[7] = MAO-B, dose–response, read-out: IC50 (μM) ± SD
[8] = MAO-B, 50 μM, read-out: Inhibition rate ± SD (%) (50 μM)

Molecule: CCC1=C(/C=C/C(O)CCCCCCCC(=O)OC)CCC1=O (stereo not drawn) [10/11, phytoprostanes B1 type II]
IC50 (MAO-B [1]; [7]): 37.7 ± 1.57 µM
Inhibition mechanism against MAO-B (MAO-B [2]): competitive MAO-B inhibitors; also recorded: competitive inhibition mechanism

Molecule: CC(=O)/C=C/C/C(C)=C/CC/C(C)=C/CC/C(C)=C/CC/C(C)=C/CO [Compound 1, Nicotiazanorpenoid A]
inhibition at 50 µM (MAO-B [1]; [8]): 15.4 ± 8.16%

Molecule: C=C(C)/C=C/[C@@H](CC/C(C)=C/CC/C(C)=C/C=O)C(C)C [Compound 2, 2,6,11,13-tetradecatetraenal-3,7,13-trimethyl-10-(1-methylethyl)]
inhibition at 50 µM (MAO-B [1]; [8]): 11 ± 3.99%

Molecule: COc1cc2ccc(=O)oc2cc1O [Compound 3, scopoletin]
IC50 (MAO-B [1]): 40.2 ± 1.21 µM
Inhibition mechanism against MAO-B (MAO-B [2]): non-competitive inhibitor
Ki (MAO-B [2]; MAO-B, read-out: Ki value (equilibrium constant for inhibitor-enzyme binding)): 78.8 µM
Dopamine levels [3]: significantly elevated
Striatal metabolite 3,4-dihydroxyphenylacetic acid (DOPAC) [3]: reducing
ABTS+ RSA ± SD (50 μM) [4]: 68.91 ± 1.75%
IC50 [4]: 27.7 ± 1.2 µM
Ki (murine MAO-B): 22 µM
Ki (human MAO-B): 20.7 µM
Selectivity for MAO-B over MAO-A (MAO-B over MAO-A): approximately 3.5 fold

Molecule: CC1=CC(=O)CC(C)(C)[C@H]1CC[C@@H](C)O [Compound 4, blumenol C]
inhibition at 50 µM (MAO-B [1]; [8]): 16.5 ± 7.04%

Molecule: CC1=CC(=O)CC(C)(C)[C@H]1/C=C/[C@@H](C)O [Compound 5, (6R,9S)-3-oxo-α-ionol]
inhibition at 50 µM (MAO-B [1]; [8]): 24 ± 8.05%

Molecule: OCCc1ccccc1 [Compound 7, 2-phenylethanol]
inhibition at 50 µM (MAO-B [1]; [8]): 14.4 ± 4.04%

Molecule: CC(C)c1cc2c(cc1O)[C@@]1(C)CCCC(C)(C)[C@@H]1CC2 [Compound 8, ferruginol]
inhibition at 50 µM (MAO-B [1]; read-out: Inhibition rate ± SD (%) (50 μM), MAO-B, 50 μM): 17.5 ± 1.5%

Molecule: CC(C)c1cc2c(cc1O)[C@@]1(C)CCCC(C)(C)[C@@H]1C=C2 [Compound 9, 6,7-dehydroferruginol]
inhibition at 50 µM (MAO-B [1]; [8]): 7.04 ± 4.08%

Molecule: CC/C=C\C/C=C\C/C=C\CCCCCC(=O)OC [Compound 14, Methyl (7Z,10Z,13Z)-7,10,13-hexadecatrienoate]
Cytotoxicity (PC12 cell): extremely low cytotoxicity
inhibition at 50 µM (MAO-B [1]; [8]): > 30%
IC50 (MAO-B [1]; [7]): 201 ± 7.03 µM
Neuroprotective effect at various concentrations ([5]; 0.5–100 μM): enhanced cell viability across all tested concentrations, except 50 μM
viability at 5 µM ([5]; Rattus norvegicus, PC-12, 5 μM (best concentration)): 93.9%
viability at 100 µM ([5]; Rattus norvegicus, PC-12, 100 μM, model group 63.58%): 87.1%

Molecule: COc1cc(C(=O)CCO)ccc1O [Compound 21, β-hydroxypropiovanillone]
inhibition at 50 µM (MAO-B [1]; read-out: Inhibition rate ± SD (%) (50 μM)): 11.2 ± 1.81%
ABTS+ RSA ± SD (50 μM) [4]: 36.36 ± 1.01%
IC50 [4]: 348 ± 17.5 µM

Molecule: C#CCN[C@@H]1CCc2ccccc21 [Rasagiline, rasagiline, reference compound]
Cell viability ([5]; positive control, abstract: at equivalent concentrations): 88.36%

Molecule: isoferulic acid [Compound 6]
ABTS+ RSA ± SD (50 μM) [4]: 92.90 ± 0.45%
IC50 [4]: 18.1 ± 2.49 µM
DPPH RSA ± SD (50 μM) [6]: 36.00 ± 1.01%
IC50 [6]: 152 ± 1.75 µM

Further lines, with some results ahead:

inhibition at 50 µM (MAO-B [1]; [8]): 18 ± 4.32%
Molecule: CCCCC/C=C\C/C=C\CCCCCCCC(=O)O [Compound 15, linolic acid]

inhibition at 50 µM (MAO-B [1]; [8]): 22.2 ± 5.24%
Molecule: COCc1ccc(C=O)[nH]1 [Compound 16, 5-(methoxymethyl)-1H-pyrrole-2-carboxaldehyde]

inhibition at 50 µM (MAO-B [1]; [8]): 17.1 ± 5.06%
Molecule: COC(=O)c1ccc(O)cn1 [Compound 17, methyl 5-hydroxypicolinate]

inhibition at 50 µM (MAO-B [1]; [8]): 8.29 ± 3.9%
Molecule: O=C(O)c1ccc(O)cc1 [Compound 18, paraben-acid]

inhibition at 50 µM (MAO-B [1]; [8]): 3.71 ± 4.89%
IC50 [4]: 84.06 ± 0.76 µM
Molecule: COc1cc(C(CO)OC)ccc1O (stereo not drawn) [Compound 19, 4-hydroxy-β,3-dimethoxybenzeneethanol]
ABTS+ RSA ± SD (50 μM) [4]: 59.17 ± 3.59%

inhibition at 50 µM (MAO-B [1]; [8]): 2.98 ± 2.8%
IC50 [4]: 60.5 ± 1.18 µM
Molecule: COc1cc(CCO)ccc1O [Compound 20, homovanillic alcohol]
ABTS+ RSA ± SD (50 μM) [4]: 57.38 ± 1.01%

inhibition at 50 µM (MAO-B [1]; [8]): 1.05 ± 3.46%
Molecule: O=C1C=CCCN1 [Compound 22, 5,6-dihydropyridin-2(1H)-one]

IC50 [4]: 14.46 ± 0.03 µM
IC50 [6]: 9.12 ± 0.25 µM
Molecule: O=C1O[C@H]([C@@H](O)CO)C(O)=C1O [Vitamin C, ascorbic acid, reference compound]
ABTS+ RSA ± SD (50 μM) [4]: 99.80 ± 0.09%
DPPH RSA ± SD (50 μM) [6]: 99.97 ± 0.05%
